Assay results from PMC11474028, “Lipopeptide antibiotics disrupt interactions of undecaprenyl phosphate with UptA” (Proceedings of the National Academy of Sciences of the …, 2024).
“Also recorded” adds a separate entry of the source.

Biological target: UptA (Bacillus subtilis, UniProt O31823)
Assay: biochemical
Format: binding
Description: We explored the binding affinity of UptA toward C55-P by recording mass spectra for solutions containing 2.5 µM UptA and 0 to 40 µM C55-P in 200 mM ammonium acetate, 0.05% LDAO at pH 8.0. […] Further increase in the concentration of C55-P enhanced the intensity of the UptA:C55-P complex, together with the emergence of additional binding events (Fig. 2A). We deconvoluted the spectra ([34]) to extract mean relative intensities of bound and unbound forms of UptA in the spectral series.
To investigate the binding selectivity of UptA for monophosphate (C55-P) versus diphosphate (C55-PP) forms of the lipid carrier, we performed comparative binding assays. First, we recorded mass spectra for a mixture of UptA with increasing concentrations of C55-PP (SI Appendix, Fig. S3). […] We then fit the data to Hill equation to obtain an apparent Kd for this system.
UptA is a member of the DedA family of transporters whose cellular functions are potentially driven by proton-motive force and provide conditional fitness to bacteria under alkaline conditions ([25], [26], [36]). […] To this end, we equilibrated C55-P with UptA at a protein/ligand molar ratio of 1:4 in a buffer of the same composition but at pH 8.0 and 5.0. […] As a negative control, we tested for pH sensitivity of C55-P binding to MraY, the latter being the downstream enzyme in the peptidoglycan pathway that couples UM5 to C55-P. To this end, we equilibrated MraY and C55-P at a molar ratio of 1:4 in a buffer of pH 8.0 and pH 5.0.
Next, we investigated the chain length selectivity of UptA by testing its interaction with geranylgeranyl phosphate (C20-P), hexaprenyl phosphate (C30-P), and C55-P; the latter representing the native form of the lipid carrier in the model organisms B. subtilis and E. coli ([39]). For this experiment, we incubated 4 µM UptA with a 10-fold molar excess of C20-P, C30-P, and C55-P at pH 8.0 and recorded spectra under the same conditions. […] The length and stereochemistry of lipid tails can influence their interactions with membrane proteins ([40]).
Detailed experimental procedures are provided in SI Appendix. Briefly, UptA (wild type and mutants) was expressed in E. coli C43(DE3) cells (Lucigen) with GFP fusion on the C-terminus and solubilized from the membrane fraction by n-dodecyl-β-D-maltopyranoside (DDM). After purification by affinity chromatography, the GFP was cleaved by TEV protease and removed, and UptA was further purified by size-exclusion chromatography in a buffer containing 20 mM Tris-HCl (pH 8.0), 200 mM NaCl, 0.02% DDM. Before measurements, proteins were buffer-exchanged into 0.05% LDAO, 200 mM ammonium acetate at the desired pH using a centrifugal buffer exchange device (Micro Bio-Spin 6, Bio-Rad). Stock solutions of lipids were prepared from chloroform/methanol solution by evaporating aliquots of known volume in a SpeedVac. After drying, the lipid films were weighed and resuspended to a final concentration of 0.5 mM in 200 mM ammonium acetate and 0.05% LDAO by vertexing.

Sequence of UptA (O31823 whole entry): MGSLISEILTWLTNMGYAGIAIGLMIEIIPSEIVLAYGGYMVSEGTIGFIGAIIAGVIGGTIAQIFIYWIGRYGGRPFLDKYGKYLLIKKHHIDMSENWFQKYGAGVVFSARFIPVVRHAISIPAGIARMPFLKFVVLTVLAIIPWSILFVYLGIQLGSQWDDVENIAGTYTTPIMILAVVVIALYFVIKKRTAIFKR

## CC(C)=CCC/C(C)=C/CC/C(C)=C/CC/C(C)=C\CC/C(C)=C\CC/C(C)=C\CC/C(C)=C\CC/C(C)=C\CC/C(C)=C\CC/C(C)=C\CC/C(C)=C\COP(=O)(O)O [C55-P, undecaprenyl phosphate]
2.5 µM UptA, 0 to 40 µM C55-P, pH 8.0, 0.05% LDAO
  protein/ligand molar ratio at which relative intensity of first binding event plateaued: ~ 4
4 µM UptA, 10-fold molar excess (40 µM) of lipid, pH 8.0, 200 mM ammonium acetate, 0.05% LDAO
  binding to UptA by lipid chain length (in words): highest intensity of protein/ligand complexes; also recorded: more favorably than C55-PP, C30-P, and C20-P
Equimolar UptA and C55-P, 200 mM ammonium acetate, 0.05% LDAO, pH 8.0
  binding to UptA, equimolar mixture (in words): high-affinity binding interactions
Native MS, 2.5 µM UptA, 0 to 40 µM C55-P, 200 mM ammonium acetate, 0.05% LDAO, pH 8.0, Hill equation fit to mean relative intensities of three replicates, 95% CI: C55-P 5.0 to 6.4 µM, C55-PP 9.5 to 32.8 µM, read-out: apparent Kd for the binding of one ligand molecule (1×) to UptA
  Kd: 5.7 µM
Native MS, 200 mM ammonium acetate, pH 8, 0.05% LDAO
  selectivity of UptA for C55-P versus C55-PP (in words): UptA is more selective toward C55-P than C55-PP
pH 8.0 vs pH 5.0
  pH sensitivity of C55-P binding to UptA (in words): environmental pH modulates the interaction of C55-P with UptA; also recorded: less C55-P binding to UptA in the presence of excess H^+
protein/ligand molar ratio 1:4, pH 8.0
  number of C55-P molecules in complex with UptA dimer: up to two
protein/ligand molar ratio 1:4, pH 8.0 vs pH 5.0, 200 mM ammonium acetate, 0.05% LDAO
  factor by which ligand-bound UptA peaks are more intense at pH 8.0 compared to pH 5.0: 3
Wild type, protein/ligand molar ratio 1:4, pH 8.0
  C55-P binding to UptA dimer versus monomer (in words): dimer interacts more favorably with C55-P than the monomer UptA
